Data from publication PMC2756456 (Clinical cancer research : an official journal of the …, 2009).

Target: myosin light chain kinase (MLCK) (Homo sapiens, UniProt Q15746)
Assay: radiometric [γ-33P]ATP kinase assay with peptide substrate KKLNRTLSFAEPG
Type: biochemical

myosin light chain kinase (MLCK), sequence (Q15746 whole entry): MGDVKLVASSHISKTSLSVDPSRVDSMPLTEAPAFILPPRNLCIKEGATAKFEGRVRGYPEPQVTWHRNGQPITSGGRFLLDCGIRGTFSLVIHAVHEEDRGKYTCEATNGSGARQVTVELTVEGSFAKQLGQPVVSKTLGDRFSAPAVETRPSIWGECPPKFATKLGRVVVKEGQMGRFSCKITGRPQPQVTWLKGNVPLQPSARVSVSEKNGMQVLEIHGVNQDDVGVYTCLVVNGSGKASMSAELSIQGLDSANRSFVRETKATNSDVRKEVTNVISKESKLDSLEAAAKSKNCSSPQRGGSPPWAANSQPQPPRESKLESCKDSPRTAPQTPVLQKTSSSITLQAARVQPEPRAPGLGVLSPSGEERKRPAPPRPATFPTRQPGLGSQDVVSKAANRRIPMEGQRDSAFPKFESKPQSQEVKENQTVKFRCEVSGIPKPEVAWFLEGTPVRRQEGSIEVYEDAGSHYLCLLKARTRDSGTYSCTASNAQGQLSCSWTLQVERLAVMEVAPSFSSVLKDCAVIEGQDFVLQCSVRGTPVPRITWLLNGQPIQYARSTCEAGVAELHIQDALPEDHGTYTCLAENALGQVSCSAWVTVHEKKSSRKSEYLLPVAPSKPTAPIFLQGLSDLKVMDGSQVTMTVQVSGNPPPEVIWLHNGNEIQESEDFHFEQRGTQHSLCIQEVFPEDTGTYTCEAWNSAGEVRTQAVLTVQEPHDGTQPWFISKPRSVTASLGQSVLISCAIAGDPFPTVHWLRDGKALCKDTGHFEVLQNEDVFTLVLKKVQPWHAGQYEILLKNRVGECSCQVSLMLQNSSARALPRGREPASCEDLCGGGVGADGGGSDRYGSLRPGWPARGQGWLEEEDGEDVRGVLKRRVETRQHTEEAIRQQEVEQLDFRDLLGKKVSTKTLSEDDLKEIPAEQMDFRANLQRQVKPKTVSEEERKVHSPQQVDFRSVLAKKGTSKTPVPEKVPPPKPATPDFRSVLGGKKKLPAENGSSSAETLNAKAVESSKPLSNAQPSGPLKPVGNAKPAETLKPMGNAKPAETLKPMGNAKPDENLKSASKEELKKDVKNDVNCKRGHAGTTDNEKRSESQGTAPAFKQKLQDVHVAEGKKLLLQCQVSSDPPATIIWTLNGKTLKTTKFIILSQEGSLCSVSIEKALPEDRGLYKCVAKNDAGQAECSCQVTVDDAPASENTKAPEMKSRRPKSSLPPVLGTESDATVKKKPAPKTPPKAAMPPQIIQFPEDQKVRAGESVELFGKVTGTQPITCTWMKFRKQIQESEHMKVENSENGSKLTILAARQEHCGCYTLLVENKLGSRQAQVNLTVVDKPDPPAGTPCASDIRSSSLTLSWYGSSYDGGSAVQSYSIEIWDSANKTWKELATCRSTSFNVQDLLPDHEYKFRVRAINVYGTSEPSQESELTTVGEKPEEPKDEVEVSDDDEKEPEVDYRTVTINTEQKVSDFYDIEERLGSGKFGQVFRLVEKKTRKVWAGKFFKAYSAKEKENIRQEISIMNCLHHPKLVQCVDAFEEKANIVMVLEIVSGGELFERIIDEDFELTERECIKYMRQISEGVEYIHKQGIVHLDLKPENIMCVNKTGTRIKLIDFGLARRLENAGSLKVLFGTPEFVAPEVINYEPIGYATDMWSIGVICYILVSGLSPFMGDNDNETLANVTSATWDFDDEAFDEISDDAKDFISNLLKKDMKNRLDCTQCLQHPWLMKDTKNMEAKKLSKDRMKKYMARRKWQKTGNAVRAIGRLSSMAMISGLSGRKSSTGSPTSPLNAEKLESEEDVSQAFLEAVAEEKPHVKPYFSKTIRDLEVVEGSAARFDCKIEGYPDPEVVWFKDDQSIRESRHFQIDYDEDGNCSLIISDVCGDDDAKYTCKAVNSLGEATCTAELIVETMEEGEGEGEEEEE

Question: Which IC50 does the source give for `CNCc1ccc(-c2[nH]c3cc(F)cc4c3c2CCNC4=O)cc1` [AG014699] here?
Answer: Its IC50 is 55 µM.
